Assay results reported in patent publication US11980632B2 (priority 2020, dated 2024).

System: corona-pseudovirus
Format: cell-based, SARS-CoV-2

| Compound | infection with the corona-pseudovirus (degree of infection depending on drug concentration) |
| --- | --- |
| heparin | inhibited in a concentration-dependent manner |
| CCN(CCO)CCCC(C)Nc1ccnc2cc(Cl)ccc12 (stereo not drawn) [hydroxychloroquinine] | inhibited in a concentration-dependent manner |
| CN(C)C(=O)COC(=O)Cc1ccc(OC(=O)c2ccc(NC(=N)N)cc2)cc1 [Camostat] | inhibited in a concentration-dependent manner |
